Reference: patent US11547681B2, “N-acylethanolamide derivatives and uses thereof” (ELIEM THERAPEUTICS, INC., priority 2016, dated 2023)
Read-outs that look alike come from different tables or passages of the source.

Experiment: Simulated intestinal fluid (SIF) stability in the presence of various enzymes
Type: in vitro ADME
Settings: 1 μM
Method: (§1) Studies were carried out in simulated intestinal fluid in the presence of various enzymes. Simulated intestinal fluid was prepared by dissolving 6.8 g of monobasic potassium phosphate in 1.0 L of water. Aliquots of this solution were taken and the pH was adjusted to 6.8. Individual enzymes were then spiked into aliquots for each experiment. A DMSO stock was first prepared for the test article. Aliquots of the DMSO solution were dosed into 700 μL of matrix, which had been pre-warmed to 37° C., at a final test article concentration of 1 μM. […] Samples were stored at 4° C. until the end of the experiment. After the final time point was sampled, the plate was mixed and then centrifuged at 3,000 rpm for 10 minutes. Calibration standards were prepared in matched matrix. […] Analytical conditions are outlined in Appendix 8-1.
as §1, with “10-1.” for “8-1.”
Studies were carried out in simulated intestinal fluid in the presence of various enzymes. Simulated intestinal fluid was prepared by dissolving 6.8 g of monobasic potassium phosphate in 1.0 L of water. Aliquots of this solution were taken and the pH was adjusted to 6.8. Individual enzymes were then spiked into aliquots for each experiment. A DMSO stock was first prepared for test article. Aliquots of the DMSO solution were dosed into 700 μL of matrix, which had been pre-warmed to 37° C., at a final test article concentration of 1 μM. […] Samples were stored at 4° C. until the end of experiment. After final time point was sampled, the plate was mixed and then centrifuged at 3,000 rpm for 10 minutes. Calibration standards were prepared in matched matrix. […] Analytical conditions are outlined in Appendix 13-1.
as §1, with “17-1.” for “8-1.”

[1] = SIF + Carboxypeptidase A, 0 min
[2] = SIF + Carboxypeptidase A, 15 min
[3] = SIF + Carboxypeptidase A, 30 min
[4] = SIF + Carboxypeptidase A, 60 min
[5] = SIF + Carboxypeptidase A, 120 min
[6] = SIF + Carboxypeptidase B, 0 min
[7] = SIF + Carboxypeptidase B, 15 min
[8] = SIF + Carboxypeptidase B, 30 min
[9] = SIF + Carboxypeptidase B, 60 min
[10] = SIF + Carboxypeptidase B, 120 min
[11] = simulated intestinal fluid with carboxypeptidase A, pH 6.8, SIF + Carboxypeptidase A, read-out: Half-life
[12] = simulated intestinal fluid with carboxypeptidase B, pH 6.8, SIF + Carboxypeptidase B, read-out: Half-life
[13] = simulated intestinal fluid with chymotrypsin, pH 6.8, SIF + Chymotrypsin, read-out: Half-life
[14] = simulated intestinal fluid with elastase, pH 6.8, SIF + Elastase, read-out: Half-life
[15] = simulated intestinal fluid with pancreatin, pH 6.8, SIF + Pancreatin, read-out: Half-life
[16] = simulated intestinal fluid with trypsin, pH 6.8, SIF + Trypsin, read-out: Half-life

Row | % Remaining of Initial (n = 1) [1] | % Remaining of Initial (n = 1) [2] | % Remaining of Initial (n = 1) [3] | % Remaining of Initial (n = 1) [4] | % Remaining of Initial (n = 1) [5] | % Remaining of Initial (n = 1) [6] | % Remaining of Initial (n = 1) [7] | % Remaining of Initial (n = 1) [8] | % Remaining of Initial (n = 1) [9] | % Remaining of Initial (n = 1) [10] | % Remaining of Initial (n = 1) (SIF + Chymotrypsin, 0 min) | % Remaining of Initial (n = 1) (SIF + Chymotrypsin, 15 min) | % Remaining of Initial (n = 1) (SIF + Chymotrypsin, 30 min) | % Remaining of Initial (n = 1) (SIF + Chymotrypsin, 60 min) | % Remaining of Initial (n = 1) (SIF + Chymotrypsin, 120 min) | % Remaining of Initial (n = 1) (SIF + Elastase, 0 min) | % Remaining of Initial (n = 1) (SIF + Elastase, 15 min) | % Remaining of Initial (n = 1) (SIF + Elastase, 30 min) | % Remaining of Initial (n = 1) (SIF + Elastase, 60 min) | % Remaining of Initial (n = 1) (SIF + Elastase, 120 min) | Compound | further results
1 | 100% | 84% | 63% | 39% | 15% | 100% | 94% | 62% | 43% | 14% | 100% | 75% | 59% | 37% | 23% | 100% | 103% | 70% | 48% | 35% | CC/C=C\C/C=C\C/C=C\C/C=C\C/C=C\CCCC(=O)OCCNC(=O)CCCCCCCCCCCCCCC [Compound I-5] | % Remaining of Initial (n = 1) (SIF + Pancreatin, 0 min): 100%; % Remaining of Initial (n = 1) (SIF + Pancreatin, 15 min): 13%; % Remaining of Initial (n = 1) (SIF + Pancreatin, 30 min): <1.0%; % Remaining of Initial (n = 1) (SIF + Pancreatin, 60 min): <1.0%; % Remaining of Initial (n = 1) (SIF + Pancreatin, 120 min): <1.0%; % Remaining of Initial (n = 1) (SIF + Trypsin, 0 min): 100%; % Remaining of Initial (n = 1) (SIF + Trypsin, 15 min): 81%; % Remaining of Initial (n = 1) (SIF + Trypsin, 30 min): 67%; % Remaining of Initial (n = 1) (SIF + Trypsin, 60 min): 44%; % Remaining of Initial (n = 1) (SIF + Trypsin, 120 min): 26%; half-life at 1 μM [11]: 44 min; half-life at 1 μM [12]: 45 min; half-life at 1 μM [13]: 47 min; half-life at 1 μM [14]: 65 min; half-life at 1 μM [15]: 5.1 min; half-life at 1 μM [16]: 56 min
2 | 100% | 77% | 46% | 60% | 56% | 100% | 87% | 93% | 54% | 19% | 100% | 106% | 99% | 51% | 55% | 100% | 95% | 74% | 64% | 69% | CCCCC/C=C\C/C=C\CCCCCCCC(=O)OCCNC(=O)CCCCCCCCCCCCCCC [Compound I-6] | % Remaining of Initial (n = 1) (SIF + Pancreatin, 0 min): 100%; % Remaining of Initial (n = 1) (SIF + Pancreatin, 15 min): 27%; % Remaining of Initial (n = 1) (SIF + Pancreatin, 30 min): 11%; % Remaining of Initial (n = 1) (SIF + Pancreatin, 60 min): 3.1%; % Remaining of Initial (n = 1) (SIF + Pancreatin, 120 min): 1.7%; % Remaining of Initial (n = 1) (SIF + Trypsin, 0 min): 100%; % Remaining of Initial (n = 1) (SIF + Trypsin, 15 min): 116%; % Remaining of Initial (n = 1) (SIF + Trypsin, 30 min): 87%; % Remaining of Initial (n = 1) (SIF + Trypsin, 60 min): 83%; % Remaining of Initial (n = 1) (SIF + Trypsin, 120 min): 123%; half-life at 1 μM (simulated intestinal fluid with carboxypeptidase A, pH 6.8, SIF + Carboxypeptidase A, outside the sampled time range, read-out: Half-life, calculated (in parentheses)): 134 min; half-life at 1 μM [11]: > 120 min; half-life at 1 μM [12]: 62 min; half-life at 1 μM [13]: 101 min; half-life at 1 μM (simulated intestinal fluid with elastase, pH 6.8, SIF + Elastase, outside the sampled time range, read-out: Half-life, calculated (in parentheses)): 185 min; half-life at 1 μM [14]: > 120 min; half-life at 1 μM [15]: 8.3 min; half-life at 1 μM [16]: > 120 min
3 | 100% | 30% | 10% | 4.1% | 3.9% | 100% | 33% | 14% | 5.7% | 2.2% | 100% | 42% | 23% | 13% | 15% | 100% | 44% | 14% | 3.8% | 3.5% | CCCCCCCCCCCCCCCC(=O)NCCOC(=O)CCC(=O)OC[C@H]1O[C@@](CO)(O[C@H]2O[C@H](CO)[C@@H](O)[C@H](O)[C@H]2O)[C@@H](O)[C@@H]1O [Compound I-7] | % Remaining of Initial (n = 1) (SIF + Pancreatin, 0 min): 100%; % Remaining of Initial (n = 1) (SIF + Pancreatin, 15 min): 40%; % Remaining of Initial (n = 1) (SIF + Pancreatin, 30 min): 19%; % Remaining of Initial (n = 1) (SIF + Pancreatin, 60 min): 6.5%; % Remaining of Initial (n = 1) (SIF + Pancreatin, 120 min): 2.7%; % Remaining of Initial (n = 1) (SIF + Trypsin, 0 min): 100%; % Remaining of Initial (n = 1) (SIF + Trypsin, 15 min): 66%; % Remaining of Initial (n = 1) (SIF + Trypsin, 30 min): 44%; % Remaining of Initial (n = 1) (SIF + Trypsin, 60 min): 38%; % Remaining of Initial (n = 1) (SIF + Trypsin, 120 min): 33%; half-life at 1 μM [11]: 8.8 min; half-life at 1 μM [12]: 10 min; half-life at 1 μM [13]: 14 min; half-life at 1 μM [14]: 12 min; half-life at 1 μM [15]: 12 min; half-life at 1 μM [16]: 50 min
